Measured values published in patent publication US10633383B2, “Compounds for the treatment, alleviation or prevention of disorders associated with Tau aggregates” (AC Immune SA, priority 2018, dated 2020).

Target: T1, Tau K18 fragment (amino acids 244 to 372 of human Tau441) aggregates (Homo sapiens, UniProt P10636)
T1 construct: encompassing amino acids 244 to 372 of the longest isoform (2N4R) of human Tau441; host or cells: bacteria
Assay: Tau K18 disaggregation assay by ThT
Type: biochemical
Details: 2 μM K18 aggregates, 30 minutes at RT, ThT fluorescence
Procedure: Tau K18 Disaggregation Assay by ThT
Compounds were dissolved in anhydrous dimethyl sulfoxide (DMSO, Sigma-Aldrich) to reach a concentration of 10 mM. K18 aggregates and serial dilutions of compounds were mixed together in PBS (volume 50 μL) to a final concentration of 2 μM of K18 aggregates and from 160 to 0.04 μM of compounds. The mixture was incubated for 30 minutes at room temperature (RT), then 40 μL of this mixture were transferred into a black 384-well plate assay (Perkin-Elmer) and mixed with 10 μL of 100 μM ThT in 250 mM glycine (both from Sigma-Aldrich) in PBS. Fluorescence (relative fluorescence units; RFU) was measured in monoplicate or duplicate on a Tecan reader (excitation: 440 nm; emission: 485 nm). Percentage of K18 disaggregation was then calculated and half maximal effective concentration (EC50) was determined using GraphPad Prism version 5 (GraphPad Software) assuming a one-binding site fitting model.

T1 sequence (P10636 561-689): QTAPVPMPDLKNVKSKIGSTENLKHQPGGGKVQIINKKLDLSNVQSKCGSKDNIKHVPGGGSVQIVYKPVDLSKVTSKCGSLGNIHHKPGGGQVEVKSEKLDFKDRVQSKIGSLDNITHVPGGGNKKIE

Compound | EC50
Cn1c2c(c3cc(F)ccc31)CN(c1ccc3nc(N4CCOCC4)sc3c1)CC2 [Example 1] | < 10 µM
CN(C)c1nc2ccc(N3CCc4[nH]c5ccc(F)cc5c4C3)cc2s1 [Example 7] | < 10 µM
CN(C)c1nc2cc(N3CCc4[nH]c5ccc(F)cc5c4C3)ccc2o1 [Example 10] | < 10 µM
CN(C)c1nc2cc(N3CCc4[nH]c5ccc(F)cc5c4C3)ccc2s1 [Example 11] | < 10 µM
Cn1c2c(c3cc(F)ccc31)CN(c1ccc3nc(N4CCOCC4)oc3c1)CC2 [Example 15] | 25 to 50 µM
CN(C)c1nc2cc(N3CCc4c(c5cc(F)cnc5n4C)C3)ccc2o1 [Example 38] | < 10 µM
CNc1nc2ccc(N3CCc4c(c5cc(OC)ccc5n4C)C3)cc2s1 [Example 41] | < 10 µM
Fc1cccc2[nH]c3c(c12)CN(c1ccc2oc(N4CCOCC4)nc2c1)CC3 [Example 53] | < 10 µM
Fc1ccc2[nH]c3c(c2c1)CN(c1cnc2nc(N4CCOCC4)sc2c1)CC3 [Example 71] | < 10 µM
Fc1ccc2[nH]c3c(c2c1)CN(c1ccc2nc(N4CCOCC4)sc2n1)CC3 [Example 72] | < 10 µM
Fc1ccc2c3c([nH]c2c1)CCN(c1cnc2nc(N4CCOCC4)sc2c1)C3 [Example 73] | < 10 µM
Fc1ccc2[nH]c3c(c2c1)CN(c1ccc(N2CCOCC2)cn1)CC3 [Example 76] | < 10 µM
Cn1c2c(c3cc(F)ccc31)CN(c1ccc(N3CCOCC3)cn1)CC2 [Example 77] | < 10 µM
Fc1ccc2c3c([nH]c2c1)CCN(c1ccc(N2CCOCC2)cn1)C3 [Example 78] | < 10 µM
Fc1ccc2c3c([nH]c2c1)CCN(c1ccc(N2CCOCC2)nc1)C3 [Example 79] | < 10 µM
Cn1c2c(c3ccc(F)cc31)CN(c1ccc(N3CCOCC3)cn1)CC2 [Example 80] | < 10 µM
Fc1cccc2[nH]c3c(c12)CN(c1ccc(N2CCOCC2)nc1)CC3 [Example 81] | 10 to 25 µM
Fc1cccc2[nH]c3c(c12)CN(c1ccc(N2CCOCC2)cn1)CC3 [Example 82] | 10 to 25 µM
Cn1c2c(c3c(F)cccc31)CN(c1ccc(N3CCOCC3)nc1)CC2 [Example 83] | < 10 µM
Cn1c2c(c3ccccc31)CN(c1ccc(N3CCOCC3)cn1)CC2 [Example 84] | < 10 µM
c1ccc2c3c([nH]c2c1)CCN(c1ccc(N2CCOCC2)cn1)C3 [Example 85] | < 10 µM
c1ccc2c3c([nH]c2c1)CCN(c1ccc(N2CCOCC2)nc1)C3 [Example 86] | 10 to 25 µM
Cn1c2c(c3ccc(F)cc31)CN(c1ccc(N3CCOCC3)nc1)CC2 [Example 87] | < 10 µM
Fc1ccc2c3c([nH]c2c1)CCN(c1ccc2nc(N4CCOCC4)sc2n1)C3 [Example 88] | < 10 µM
Fc1ccc2c3c([nH]c2c1)CCN(c1cc2sc(N4CCOCC4)nc2cn1)C3 [Example 89, 4-(6-(7-fluoro-1,3,4,5-tetrahydro-2H-pyrido[4,3-b]indol-2-yl)thiazolo[4,5-c]pyridin-2-yl)morpholine] | < 10 µM
Fc1ccc2[nH]c3c(c2c1)CN(c1cc2sc(N4CCOCC4)nc2cn1)CC3 [Example 90] | < 10 µM
Fc1ccc2c3c([nH]c2c1)CCN(c1ccc2ccc(N4CCOCC4)nc2c1)C3 [Example 91] | 10 to 25 µM

Compound | EC50
Fc1ccc2c3c([nH]c2c1)CCN(c1ccc2nc(N4CCOCC4)ccc2c1)C3 [Example 92] | < 10 µM
COc1ccc2nc(N3CCc4c(c5cc(F)ccc5n4C)C3)ccc2c1 [Example 93] | < 10 µM
COc1cncc(N2CCc3c(c4cc(F)ccc4n3C)C2)c1 [Example 94] | < 10 µM
COc1cc(N2CCc3c(c4cc(F)ccc4n3C)C2)ccn1 [Example 95] | < 10 µM
Cn1c2c(c3cc(F)ccc31)CN(c1ccc(N3CCOCC3)cc1)CC2 [Example 96] | < 10 µM
COc1ccc2c(c1)c1c(n2C)CCN(c2ccc3oc(N(C)C)nc3c2)C1 [Example 96a] | 10 to 25 µM
c1cnc2oc3c(c2c1)CN(c1ccc2oc(N4CCOCC4)nc2c1)CC3 [Example 96b] | < 10 µM
Cn1c2c(c3cc(F)ccc31)CN(c1cncc(C(F)(F)F)c1)CC2 [Example 96d] | < 10 µM
Cn1c2c(c3cc(F)ccc31)CN(c1ccc(F)cn1)CC2 [Example 96e] | 25 to 50 µM
Fc1ccc2[nH]c3c(c2c1)CN(c1ccc(N2CCOCC2)nn1)CC3 [Example 97] | < 10 µM
CNc1nc2ccc(N3CCc4[nH]c5ccc(F)cc5c4C3)cc2o1 [Example 98] | < 10 µM
Fc1ccc2[nH]c3c(c2c1)CN(c1ccnc(N2CCOCC2)n1)CC3 [Example 99] | 25 to 50 µM
Fc1ccc2[nH]c3c(c2c1)CN(c1cnc(N2CCOCC2)cn1)CC3 [Example 100] | 25 to 50 µM
Fc1ccc2c3c([nH]c2c1)CCN(c1ccc(N2CCOCC2)nn1)C3 [Example 101] | < 10 µM
Fc1ccc2c3c([nH]c2c1)CCN(c1ccc(N2CC4CCC(C2)O4)nn1)C3 [Example 102] | 25 to 50 µM
Fc1ccc2c3c([nH]c2c1)CCN(c1cnc(N2CCOCC2)cn1)C3 [Example 103] | < 10 µM
Fc1ccc2[nH]c3c(c2c1)CN(c1ncc2nc(N4CCOCC4)sc2n1)CC3 [Example 104] | < 10 µM
Fc1ccc2[nH]c3c(c2c1)CN(c1cnc(N2C4CCC2COC4)cn1)CC3 [Example 105] | < 10 µM
Fc1ccc2[nH]c3c(c2c1)CN(c1ccc2nc(N4CCOCC4)ccc2n1)CC3 [Example 105a] | < 10 µM
Fc1ccc2c3c([nH]c2c1)CCN(c1ccc2nc(N4CCOCC4)ccc2n1)C3 [Example 105b] | < 10 µM
Fc1ccc2c3c([nH]c2c1)CCN(c1ncc2nc(N4CCOCC4)sc2n1)C3 [Example 105f] | < 10 µM
Fc1ccc2c3c([nH]c2c1)CCN(c1nc2cc(N4CCOCC4)ccc2o1)C3 [Example 106] | < 10 µM
Fc1ccc2c3c([nH]c2c1)CCN(c1nc2cc(N4CCOCC4)ccc2s1)C3 [Example 107] | < 10 µM
Fc1ccc2c3c([nH]c2c1)CCN(c1nc2ccc(N4CCOCC4)cc2s1)C3 [Example 108] | < 10 µM
Fc1ccc2c3c([nH]c2c1)CCN(c1nc2ccc(N4CCOCC4)cc2o1)C3 [Example 109] | < 10 µM
Fc1ccc2c3c([nH]c2c1)CCN(c1cc2ccc(N4CCOCC4)nc2cn1)C3 [Example 110] | < 10 µM
Fc1cccc2c3c([nH]c12)CCN(c1ccc2oc(N4CCOCC4)nc2c1)C3 [Example 111] | < 10 µM

Compound | EC50
Fc1ccc2[nH]c3c(c2c1)CN(c1cnc2nc(N4CCOCC4)ccc2c1)CC3 [Example 112] | < 10 µM
Fc1ccc2[nH]c3c(c2c1)CN(c1ccc2nc(N4CCOCC4)ccc2c1)CC3 [Example 113] | < 10 µM
Fc1ccc2[nH]c3c(c2c1)CN(c1ccc2ccc(N4CCOCC4)nc2c1)CC3 [Example 114] | 10 to 25 µM
Fc1ccc2[nH]c3c(c2c1)CN(c1ccc(N2CCOCC2)cc1)CC3 [Example 115] | < 10 µM
COCCN(C)c1nc2cc(N3CCc4[nH]c5cc(F)ccc5c4C3)ccc2o1 [Example 116] | < 10 µM
Fc1ccc2c3c([nH]c2c1)CCN(c1ccc(N2CCOCC2)cc1)C3 [Example 117] | < 10 µM
COCCNc1nc2cc(N3CCc4[nH]c5cc(F)ccc5c4C3)ccc2o1 [Example 118] | 10 to 25 µM
Cn1c2c(c3ccccc31)CN(c1ccc(N3CCOCC3)nc1)CC2 [Example 119] | < 10 µM
Cn1c2c(c3cccc(F)c31)CN(c1ccc3oc(N4CCOCC4)nc3c1)CC2 [Example 120] | < 10 µM
N#Cc1ccc(N2CCc3[nH]c4cc(F)ccc4c3C2)nc1 [Example 121] | < 10 µM
Fc1ccc2c3c([nH]c2c1)CCN(c1ccc2cc(N4CCOCC4)ncc2c1)C3 [Example 122] | < 10 µM
N#Cc1ccc(N2CCc3[nH]c4cc(F)ccc4c3C2)cn1 [Example 123] | < 10 µM
Fc1ccc2[nH]c3c(c2c1)CN(c1cccc2oc(N4CCOCC4)nc12)CC3 [Example 124] | < 10 µM
Fc1ccc2c3c([nH]c2c1)CCN(c1ccc2oc(N4CCOC5(CCC5)C4)nc2c1)C3 [Example 125] | < 10 µM
C[C@@H]1COCCN1c1nc2cc(N3CCc4[nH]c5cc(F)ccc5c4C3)ccc2o1 [Example 126] | < 10 µM
COc1cccc2c3c([nH]c12)CCN(c1ccc2oc(N4CCOCC4)nc2c1)C3 [Example 127] | < 10 µM
C[C@H]1CN(c2nc3cc(N4CCc5[nH]c6cc(F)ccc6c5C4)ccc3o2)CCO1 [Example 128] | < 10 µM
C[C@H]1COCCN1c1nc2cc(N3CCc4[nH]c5cc(F)ccc5c4C3)ccc2o1 [Example 129] | < 10 µM
C[C@@H]1CN(c2nc3cc(N4CCc5[nH]c6cc(F)ccc6c5C4)ccc3o2)CCO1 [Example 130] | < 10 µM
COc1cc(N2CCc3[nH]c4cc(F)ccc4c3C2)ccn1 [Example 132] | < 10 µM
COc1ccc2c3c([nH]c2c1)CCN(c1ccc2oc(N4CCOCC4)nc2c1)C3 [Example 133] | < 10 µM
CCOc1ccc2[nH]c3c(c2c1)CN(c1ccc2oc(N4CCOCC4)nc2c1)CC3 [Example 136] | 10 to 25 µM
Cc1cccc2c3c([nH]c12)CCN(c1ccc2oc(N4CCOCC4)nc2c1)C3 [Example 137] | < 10 µM
COc1cccc(N2CCc3[nH]c4cc(F)ccc4c3C2)n1 [Example 138] | < 10 µM
CC(C)Oc1cc(N2CCc3[nH]c4cc(F)ccc4c3C2)ccn1 [Example 139] | 10 to 25 µM
COc1ccnc(N2CCc3[nH]c4cc(F)ccc4c3C2)c1 [Example 140] | < 10 µM
